What was measured:
mice = conditions: cited from earlier work; for effect on dopamine levels: MPTP
MAO-A [1] = molecular target: T1, MAO-A (Homo sapiens, UniProt P21397); conditions: cited from earlier work
T1 sequence (P21397 1-527): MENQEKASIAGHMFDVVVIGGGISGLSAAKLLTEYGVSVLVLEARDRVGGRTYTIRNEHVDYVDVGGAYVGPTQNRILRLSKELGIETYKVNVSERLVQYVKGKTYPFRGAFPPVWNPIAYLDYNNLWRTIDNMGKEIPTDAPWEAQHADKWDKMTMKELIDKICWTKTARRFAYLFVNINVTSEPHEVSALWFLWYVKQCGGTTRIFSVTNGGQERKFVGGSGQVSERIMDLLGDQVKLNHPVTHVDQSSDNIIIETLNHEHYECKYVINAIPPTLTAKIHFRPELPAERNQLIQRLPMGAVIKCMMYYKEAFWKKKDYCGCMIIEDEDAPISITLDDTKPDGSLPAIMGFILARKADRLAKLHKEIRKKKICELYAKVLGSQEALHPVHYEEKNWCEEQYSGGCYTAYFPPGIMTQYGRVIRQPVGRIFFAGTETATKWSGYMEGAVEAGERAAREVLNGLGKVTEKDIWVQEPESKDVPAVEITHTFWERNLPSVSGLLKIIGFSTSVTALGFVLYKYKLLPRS

MAO-B = molecular target: T2, MAO-B (Homo sapiens, UniProt P27338); conditions: cited from earlier work
T2 sequence (P27338 1-520): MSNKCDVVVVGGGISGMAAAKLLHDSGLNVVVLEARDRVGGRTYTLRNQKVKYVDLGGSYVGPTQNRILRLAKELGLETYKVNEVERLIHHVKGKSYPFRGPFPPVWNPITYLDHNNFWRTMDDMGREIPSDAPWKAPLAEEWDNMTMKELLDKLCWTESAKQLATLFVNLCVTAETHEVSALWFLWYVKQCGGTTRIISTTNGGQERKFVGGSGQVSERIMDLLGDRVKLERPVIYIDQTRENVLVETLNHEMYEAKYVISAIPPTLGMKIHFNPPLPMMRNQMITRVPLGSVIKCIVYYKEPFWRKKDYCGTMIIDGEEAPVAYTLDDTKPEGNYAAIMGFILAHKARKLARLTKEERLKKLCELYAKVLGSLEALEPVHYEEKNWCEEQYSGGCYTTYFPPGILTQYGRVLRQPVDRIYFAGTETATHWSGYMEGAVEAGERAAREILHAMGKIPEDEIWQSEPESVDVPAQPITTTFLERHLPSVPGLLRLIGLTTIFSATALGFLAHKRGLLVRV

iNOS = test: LPS-stimulated RAW cells, protein blot for iNOS expression; format: cell-based, mouse
Procedure: (§1) This example illustrates in vitro studies of 2-(pyridin-3-yl)-2,3,4,7-tetrahydro-1H-azepine. For these experiments, the mouse macrophage cell line RAW 264.7 was used (referred to herein as RAW). The design of the experiments is the following:
(§2) RAW cells were plated in complete medium overnight. The following day, a known inflammatory stimulus (bacterial LPS) was added to the culture wells. Following a 15 minute stimulation, 2-(pyridin-3-yl)-2,3,4,7-tetrahydro-1H-azepine (7-MR) was added to the culture at different concentrations. Twenty-four hours later, RAW cells were harvested and their proteins extracted. Proteins were then run on a polyacrylamide gels and transferred to a nitrocellulose membrane. The membrane was finally probed with commercial antibodies against some classic inflammatory markers.
(§3) The following three inflammatory markers were tested:
iNOS (SantaCruz Biotechnology, sc-650)

COX-2 = test: LPS-stimulated RAW cells, protein blot for COX-2 expression; format: cell-based, mouse; conditions: LPS stimulation, compound added after 15 minutes, harvest 24 hours later, FIG. 2
Procedure: as §1, §2, §3
COX-2 (antibody made by Cayman Chemical, catalog number 160106)

MAO-A [2] = molecular target: T1, MAO-A; test: MAO-Glo luminescent assay, MAO-A; format: biochemical; conditions: 1 hour at room temperature, FIG. 5
Description: This example describes experiments for determining monoamine oxidase (MAO) inhibition for 2-(pyridin-3-yl)-2,3,4,7-tetrahydro-1H-azepine and other alkaloids. MAOs are enzymes located on the outer membrane of mitochondria and are involved in the catabolism of monoamine neurotransmitters. There are two well-characterized isoenzymes: MAO-A, which predominantly catabolizes serotonin and norepinephrine, and MAO-B, which preferentially catabolizes benzylamine and phenylethylamine. Dopamine and tyramine are metabolized by both isoforms.
To detect the activity of MAO, a luminescent method (MAO-Glo Assay kit, from Promega, Cat # V1401) was used. In this method, a MAO substrate (a derivative of beetle luciferin provided in the kit) is mixed with the compound to be tested (in this case, myosmine and control compounds). Then, the MAO enzymes (either A or B, purchased separately) are added to the mixture and incubated with the reaction for 1 hour at room temperature. The MAO enzymes, if not inhibited by the test compound, will convert the substrate into methyl ester luciferin. Finally, a luciferin detection reagent (provided by the kit) is added (20 minutes at room temperature) to stop the MAO reaction and convert methyl ester luciferin into D-luciferin. […] The luminescent signal is measured and recorded using a luminometer. […]

RAW macrophage cells = test: assay of cell viability in RAW macrophage cells; format: cell-based, mouse; conditions: RAW 264.7 cells, FIG. 1
Procedure: as §1
Before testing the anti-inflammatory effect(s) of 2-(pyridin-3-yl)-2,3,4,7-tetrahydro-1H-azepine, an assay of cell viability was performed. […] Toxicity was only seen at higher doses (3 mM and above).

Row | Compound | effect on dopamine levels (mice) | decrease in dopamine metabolite levels induced by MPTP (mice) | MAO inhibitory effects against MAO-A (MAO-A [1]) | MAO inhibitory effects against MAO-B (MAO-B) | further results
1 | CN1CCCC1c1cccnc1 (stereo not shown) [nicotine] | no significant effect | prevented the decrease | – | – | –
2 | C1=CCC(c2cccnc2)NC1 (stereo not shown) [anatabine] | – | – | exhibited MAO inhibitory effects | exhibited MAO inhibitory effects | –
3 | c1cncc([C@@H]2CCCCN2)c1 [anabasine] | – | – | exhibited MAO inhibitory effects | exhibited MAO inhibitory effects | –
4 | c1ccc(-c2ccncc2)cc1 [4-phenylpyridine] | no significant effect | prevented the decrease | – | – | –
5 | C1=CCNC(c2cccnc2)CC1 (stereo not shown) [2-(pyridin-3-yl)-2,3,4,7-tetrahydro-1H-azepine] | – | – | – | – | expression of iNOS (iNOS; LPS stimulation, compound added after 15 minutes, harvest 24 hours later, FIGS. 2 and 3): decreased significantly; suppression of iNOS expression, separate experiments (iNOS; confirmation in separate experiments, FIG. 4): specifically suppressed iNOS; expression of COX2 (COX-2): slightly; inhibition of MAO-A (activity curve) (MAO-A [2]): found to inhibit MAO-A; concentration not toxic to RAW macrophage cells (cell viability) (RAW macrophage cells): up to 2 mM; concentration at which toxicity was seen (cell viability) (RAW macrophage cells; higher doses): ≥ 3000 µM
6 | c1cncc([C@@H]2CCCN2)c1 [nornicotine] | – | – | exhibited MAO inhibitory effects | exhibited MAO inhibitory effects | –
